Blank lines part the entries; values can stand above or below the molecule they belong to. Residues, ends and D or L forms follow the SMILES beside them. *: point of attachment. Palmitoyl = CCCCCCCCCCCCCCCC(=O)*
Assays:
[1] = target: T1, TRPV6 WT (Homo sapiens, UniProt Q9H1D0); experiment: NFAT localization, TRPV6 WT; assay type: cell-based; details: HEK293 cells
T1 construct: expressed in transfected cells; host or cells: HEK293 cells, transient transfection
T1 sequence (Q9H1D0 41-765 limits assumed): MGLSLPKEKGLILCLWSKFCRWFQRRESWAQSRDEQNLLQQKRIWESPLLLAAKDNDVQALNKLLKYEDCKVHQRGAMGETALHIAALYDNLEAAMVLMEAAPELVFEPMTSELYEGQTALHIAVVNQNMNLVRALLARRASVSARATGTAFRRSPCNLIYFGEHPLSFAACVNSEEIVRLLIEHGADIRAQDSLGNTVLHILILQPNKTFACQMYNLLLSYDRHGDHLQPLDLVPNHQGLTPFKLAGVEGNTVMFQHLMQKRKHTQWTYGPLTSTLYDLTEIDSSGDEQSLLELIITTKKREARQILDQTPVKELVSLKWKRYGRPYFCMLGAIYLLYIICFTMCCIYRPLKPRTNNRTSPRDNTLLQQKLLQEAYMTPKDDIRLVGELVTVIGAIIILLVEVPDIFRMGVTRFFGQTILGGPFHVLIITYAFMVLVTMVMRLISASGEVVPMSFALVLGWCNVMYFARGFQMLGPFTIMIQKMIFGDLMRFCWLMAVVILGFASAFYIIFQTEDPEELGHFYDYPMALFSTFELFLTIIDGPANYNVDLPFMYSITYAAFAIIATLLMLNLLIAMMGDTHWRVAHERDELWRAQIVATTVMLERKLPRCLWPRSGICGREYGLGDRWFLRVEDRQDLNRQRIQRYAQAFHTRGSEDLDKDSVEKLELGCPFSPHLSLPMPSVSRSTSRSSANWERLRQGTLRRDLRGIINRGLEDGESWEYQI
Text: N-terminally TagRFP-labeled human TRPV6 (725 aa) was kindly provided by R. Bhardwaj and M. Hediger (University of Bern, Bern, Switzerland). This variant is translated from the first ATG codon and thus deviates from the non-ATG-initiated protein which is expressed in vivo (accession number NM_018646.6) by lacking 40 amino acids of the very N-terminus. For N-terminal labeling with EYFP, TRPV6 was cloned into pEYFP-C1 (Clontech) via EcoRI and SacII restriction sites. Mutations (F468A, R470A, F472A, K484A/Q, G488R, R492A/Q, I575A, G579A, D580A/K, H582A, W583A/F, H587A, R589A, W593A, R632A/Q, R470A, W583F) were introduced using the QuickChange XL site-directed mutagenesis kit (Stratagene, San Diego, CA, USA) and Pfu DNA Polymerase (Promega, Madison, WI, USA). pTagRFP-hTRPV6 I575A was kindly provided by the lab of M. Hediger (University of Bern, Bern, Switzerland). Forward and reverse primers for site-directed mutagenesis were synthesized by Eurofins genomics GmbH (Wien, Vienna, Austria). Intactness of the constructs in terms of sequence was confirmed by sequencing (Microsynth Austria GmbH, Wien, Vienna, Austria; Eurofins genomics GmbH, Wien, Vienna, Austria). In the present experiments, Tag-RFP-labeled constructs were implemented for NFAT screens, patch clamp measurements, and Fura-2-based Ca^2+ imaging, while for R.Geco1.2 measurements, TRPV6 WT and mutants were used which carried an EYFP label at the N-terminus (pEYFP-C1 vector) to avoid spectral overlap. R.Geco1.2 was purchased from Addgene (No. 45494), and mCherry-CRY2-5ptase OCRL was established in the lab of P. De Camilli and was derived from Addgene (No. 66836), as was CIBN-CAAX (No. 79574). Plasmids encoding for mCerulean3-CRY2-5′ ptase OCRL, YFP-CIBN-CAAX, and the mCherry-tagged PH domain were provided by K. Groschner (Medical University of Graz, Graz, Austria). […] CFP-NFAT (NFATc1, equivalent to NFAT2) was kindly provided by R. Kehlenbach (Scripps Research Institute, La Jolla, CA, USA).
(§1) After incubation, cover slips were carefully rinsed with phenol red-free DMEM supplemented with the compound and dosage corresponding to the previous incubation, which was then also present during imaging. In any case, an untreated control was included as well, using phenol red-free DMEM as imaging solution. Subcellular NFAT localization of TRPV6 expressing cells was again monitored on an Axiovert 135 inverted microscope (Zeiss, Oberkochen, Germany), as described in more detail before. Excitation of CFP relied on the 425 nm LED in combination with a CHROMA 69,008× ET ECFP/EYFP/mCherry 25mm Dia Mounted filter. Images were analyzed using Matlab2018a, differentiating between three cell populations based on the ratio of CFP emission intensity originating from the nucleus and the cytosol, similar to Schober et al. (2019).

[2] = system: TRPV6 W593A; experiment: NFAT screen, TRPV6 W593A; assay type: cell-based, human; details: HEK293 cells; 5 μM cis-22a, 2 h
Method: (§2) N-terminally TagRFP-labeled human TRPV6 (725 aa) was kindly provided by R. Bhardwaj and M. Hediger (University of Bern, Bern, Switzerland). This variant is translated from the first ATG codon and thus deviates from the non-ATG-initiated protein which is expressed in vivo (accession number NM_018646.6) by lacking 40 amino acids of the very N-terminus. For N-terminal labeling with EYFP, TRPV6 was cloned into pEYFP-C1 (Clontech) via EcoRI and SacII restriction sites. […]
as §1, with “In any case, an untreated control was included as well, using phenol red-free DMEM as imaging solution.” left out, “Excitation of CFP relied on the 425 nm LED in combination with a CHROMA 69,008× ET ECFP/EYFP/mCherry 25mm Dia Mounted filter.” left out

[3] = system: TRPV6 G488R; experiment: NFAT screen, TRPV6 G488R; assay type: cell-based, human; details: HEK293 cells; 5 μM cis-22a, 2 h, vs DMSO
Method: as §2
as §1, with “In any case, an untreated control was included as well, using phenol red-free DMEM as imaging solution.” left out, “Excitation of CFP relied on the 425 nm LED in combination with a CHROMA 69,008× ET ECFP/EYFP/mCherry 25mm Dia Mounted filter.” left out

[4] = system: TRPV6 F468A; experiment: NFAT screen, TRPV6 F468A; assay type: cell-based, human; details: HEK293 cells; 5 μM cis-22a, 2 h; nuclear NFAT already reduced without cis-22a
Method: as §2
as §1, with “In any case, an untreated control was included as well, using phenol red-free DMEM as imaging solution.” left out, “Excitation of CFP relied on the 425 nm LED in combination with a CHROMA 69,008× ET ECFP/EYFP/mCherry 25mm Dia Mounted filter.” left out

[5] = system: TRPV6 W583F; set-up: method as in PMID 33246965; details: ref [47], cited from earlier work
[6] = system: TRPV6 H582A; experiment: NFAT screen, TRPV6 H582A; assay type: cell-based, human; details: HEK293 cells; 5 μM cis-22a, 2 h, vs DMSO; analysable cells hardly present
Method: as §2
as §1, with “In any case, an untreated control was included as well, using phenol red-free DMEM as imaging solution.” left out, “Excitation of CFP relied on the 425 nm LED in combination with a CHROMA 69,008× ET ECFP/EYFP/mCherry 25mm Dia Mounted filter.” left out

[7] = system: TRPV6 G488R; details: ref [62]; cited from earlier work
Text: As mentioned before, the G488R mutation resides within the segment linking the fourth and fifth transmembrane domain of TRPV6. Importantly, different examples exist throughout the entire TRP superfamily, highlighting the importance of the corresponding protein section for a proper channel function, for instance, by serving as a binding site for different agonists or antagonists.

[8] = system: TRPV6 R492Q; experiment: NFAT screen, TRPV6 R492Q; assay type: cell-based, human; details: HEK293 cells; 5 μM cis-22a, 2 h, vs DMSO
Method: as §2
as §1, with “In any case, an untreated control was included as well, using phenol red-free DMEM as imaging solution.” left out, “Excitation of CFP relied on the 425 nm LED in combination with a CHROMA 69,008× ET ECFP/EYFP/mCherry 25mm Dia Mounted filter.” left out

[9] = system: TRPV6 D580K; experiment: NFAT screen, TRPV6 D580K; assay type: cell-based, human; details: HEK293 cells; 5 μM cis-22a, 2 h, vs DMSO
Method: as §2
as §1, with “In any case, an untreated control was included as well, using phenol red-free DMEM as imaging solution.” left out, “Excitation of CFP relied on the 425 nm LED in combination with a CHROMA 69,008× ET ECFP/EYFP/mCherry 25mm Dia Mounted filter.” left out

[10] = 5 μM cis-22a, three or four hours

Compound: CCCCCCCCCCCCCCCC(=O)N[C@@H](Cc1c[nH]cn1)C(=O)N[C@@H](CCCNC(=N)N)C(=O)N[C@@H](CCC(N)=O)C(=O)N[C@@H](CCCCN)C(=O)N[C@@H](Cc1c[nH]cn1)C(=O)N[C@@H](Cc1ccccc1)C(=O)N[C@@H](CCC(=O)O)C(=O)N[C@@H](CCCCN)C(=O)N[C@@H](CCCNC(=N)N)C(=O)N[C@@H](CCCNC(=N)N)C(N)=O [pal-PIP2 peptide] (Palmitoyl-HRQKHFEKRR-NH2)
- NFAT localization patterns ([1]; 10 μM pal-PIP2 peptide, 15–20 min or 2 h): unable to change localization patterns

- NFAT distribution pattern ([1]; 0.1 μM cis-22a, 2 h, 37 °C, vs DMSO about 90% nuclear, about 10% homogeneous): essentially preserved
- nuclear NFAT localization (% of cells) ([1]; 5 μM cis-22a, 2 h, vs DMSO control 90% nuclear): 22%
- NFAT cytosolic localization [1, 10]: roughly 40%
Compound: Cc1cccc(C2CCC(N3CCN(c4cccnc4)CC3)CC2)c1.O=C(O)C(F)(F)F (stereo not drawn) [cis-22a]
- reduction in nuclear NFAT [2]: lower yet significant decrease in the proportion of cells showing NFAT in the nucleus
- reduction of nuclear NFAT localization [3]: impeded cis-22a-based reductions in nuclear NFAT localization
- reduction of nuclear NFAT localization [4]: further significant reduction in nucleus-targeted NFAT
- response to cis-22a vs TRPV6 WT ([5]; HEK293 cells, 0.1 μM and 10 μM cis-22a, Figure 5B): significantly reduced response
- IC50 ([5]; TRPV6 W583F): ~6.19 µM
- change of nuclear NFAT localization [6]: nuclear NFAT localization was higher for cis-22a-treated cells compared to the DMSO control
- NFAT nuclear localization [1, 10]: only a small proportion of cells maintained nuclear localization
- NFAT homogeneous vs cytosolic localization ([1]; 10 μM cis-22a, 2 h): the likelihood for homogeneous and cytosolic localization equalized
- NFAT cytosolic localization, dose dependence ([1]; 0.1, 1, 5, 10 μM cis-22a, 2 h): only observed at the two highest concentrations tested
- NFAT nuclear localization, dose dependence ([1]; 1, 5, or 10 μM cis-22a, 2 h, 37 °C): continuously decreased the proportion of cells showing nuclear NFAT localization but favored a homogeneous distribution
- sensitivity to cis-22a (in words) [7]: largely insensitive
- reduction of nuclear NFAT localization [8]: failed to significantly reduce NFAT nuclear localization
- change of nuclear NFAT localization [9]: not significantly changed

From PMC10779433, “Bidirectional Allosteric Coupling between PIP2 Binding and the Pore of the Oncochannel TRPV6” (International Journal of Molecular Sciences, 2024)
